{
  "source": "paper PMC9085743",
  "about": "“Identification of oleoylethanolamide as an endogenous ligand for HIF-3α” (Nature Communications, 2022)",
  "molecular_target": "T1, HIF-3α (Mus musculus, UniProt Q0VBL6)",
  "T1 construct": "gene Hif3a; SPR: MBP-HIF-3α-PAS-B (residues 235-363); crystal: HIF-3α residues 4-358 with ARNT residues 82–464; with ARNT (in the crystal, thermal shift, AS-MS, TR-FRET and HDX-MS; not in SPR)",
  "T1 sequence (Q0VBL6 235-363)": "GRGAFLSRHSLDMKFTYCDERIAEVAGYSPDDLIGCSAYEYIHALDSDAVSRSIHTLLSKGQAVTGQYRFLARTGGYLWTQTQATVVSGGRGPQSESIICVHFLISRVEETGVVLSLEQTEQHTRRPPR",
  "assay": "co-crystal structure ([…] Å), SPR, thermal shift, AS-MS, HDX-MS",
  "assay_type": "binding",
  "data": [
    {"molecule": "CCCCCCCC/C=C\\CCCCCCCC(=O)NCCO", "note": "[OEA, oleoylethanolamide]", "values": [
      {"measurement": "Kd", "result": "~14", "unit": "µM"}
    ]}
  ]
}
